Several values for one entry are separate records, joined by “and”; a condition that tells them apart may be missing. Identical values can stand only once. Like-named read-outs stand apart in the source and are kept apart here. Where a SMILES comes first, the peptide text is derived from it.
Tests used:
rat apelin receptor-EGFP [1] = biological target: T1, rat apelin receptor-EGFP (Rattus norvegicus, UniProt Q9JHG3); test: ERK1/2 phosphorylation (Alphascreen); type: cell-based
T1 construct: expressed in transfected cells
T1 sequence (Q9JHG3 1-377): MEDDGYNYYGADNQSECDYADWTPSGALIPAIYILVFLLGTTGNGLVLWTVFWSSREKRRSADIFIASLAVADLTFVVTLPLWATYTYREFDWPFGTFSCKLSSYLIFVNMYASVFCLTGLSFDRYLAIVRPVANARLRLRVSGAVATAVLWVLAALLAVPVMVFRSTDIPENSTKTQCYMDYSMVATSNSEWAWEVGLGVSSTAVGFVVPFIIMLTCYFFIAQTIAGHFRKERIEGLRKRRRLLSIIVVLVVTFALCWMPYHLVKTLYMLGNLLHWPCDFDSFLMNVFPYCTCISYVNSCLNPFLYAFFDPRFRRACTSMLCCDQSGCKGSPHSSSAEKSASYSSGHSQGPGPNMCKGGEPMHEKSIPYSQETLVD
Excerpt: ERK1/2 phosphorylation was then monitored by Alphascreen technology.

in vitro = conditions: mouse, plasma
Experimental: For each compound, the stock solution (100 μM in water) was diluted in plasma to a final incubation concentration of 5 μM. The incubation at 37° C. was stopped respectively at to and 4 h by adding one volume of ice cold acetonitrile containing 0.1% trifluoroacetic acid. The sample was vortexed for 1 min and then centrifuged at 4° C. before LC-MS injection of the supernatant. Analyses were performed on a Kinetex RP-C18 column (2.6 μm, 100 Å, 50×4.6 mm) using a linear gradient (solvent B in solvent A, solvent A: water/0.05% TFA; solvent B: acetonitrile; flow rate of 2 mL·min^−1: detection at 358 nm). The percentage of remaining test compound relative to t0 was measured by monitoring the peak area of the chromatogram.

[2] = system: rat aortic rings precontracted by noradrenaline (NA); test: Isometric tension of aortic rings precontracted by noradrenaline; conditions: precontraction 3×10^−6 M NA
Experimental: The experiments were performed in rat aortic rings as previously described (39). […] The aortas were cleaned of excess connective tissue and fat and cut into rings of approximately 3-4 mm in length. Special care was taken to avoid damaging the luminal surface of the endothelium. […] One end of the aortic ring was connected to a tissue holder and the other to an isometric force transducer (EMKA Technologies, Paris, France). […] During equilibration period, the rings were washed every 30 min. Then, a first relaxation to acetylcholine (Ach, 10^−4 mol/L) was implemented to check the integrity or the absence of the endothelium in rings precontracted with NA (3×10^−8 mol/L). After rinsing with PSS to baseline tension, rings were equilibrated for 90 min. […] Each concentration of the drug was added at the maximal effect of the precedent concentration. The concentration-response curves were continuously recorded on a PC by means of IOX v 2.4 (EMKA Technologies, Paris) for further analysis (Datanalyst v2.1, EMKA Technologies, Paris).

rat apelin receptor-EGFP [3] = biological target: T1, rat apelin receptor-EGFP; test: Inhibition of forskolin-induced cAMP production (HTRF); type: cell-based
Experimental: cAMP was quantified using the cAMP dynamic 2 assay kit (Cisbio Bioassays, Codolet, France) based on homogeneous time-resolved fluorescence (HTRF) technology. The stimulation was done in the stimulation buffer (HBSS, 5 mM Hepes, 0.1% BSA stabilizer, 1 mM IBMX, pH 7.4). Briefly, 2,000/well CHO cells stably expressing the rat apelin receptor-EGFP were added into 384-well plate and stimulated with 10^−6 M forskolin (FSK) and increasing concentrations (10^−14 to 10^−4 M) of apelins or its analogs for 30 min at room temperature. Cells were then lyzed, and cAMP levels were determined following manufacturer instructions.

rat apelin receptor-EGFP [4] = biological target: T1, rat apelin receptor-EGFP; test: Apelin receptor-EGFP internalization, confocal microscopy; type: cell-based
Experimental: The internalization assay was performed as described previously with CHO cells stably expressing the rat apelin receptor-EGFP (43). […] Cells were then mounted in Aquapolymount (Polysciences, Warrington, Pa., USA) for confocal microscopic analysis (Sec (42) for details).

rat apelin receptor-EGFP [5] = biological target: T1, rat apelin receptor-EGFP; test: [125I]pE13F radioligand binding on CHO membrane preparations
Experimental: Crude membrane preparation from CHO stably expressing the wild-type rat apelin receptor-EGFP, were prepared as previously described (39). […] The reaction was stopped by adding ice-cold binding buffer and filtered through glass microfiber filters (Whatman GF/C filters). Radioactivity was counted in Wizard 1470 Wallac gamma counter (Perkin Elmer, Turku, Finland).

[6] = system: rat glomerular arterioles precontracted by Angiotensin II (AngII); test: Diameter of glomerular arterioles precontracted by angiotensin II
Experimental: The left kidney of male rats was prepared for microdissection of arterioles as previously described (44). Glomerular arterioles were isolated under stereomicroscopic observation. The afferent and muscular efferent arterioles were isolated with the glomerulus and identify according their morphology and localization in the inner renal cortex as previously described by Helou et al. […] For these experiments afferent and muscular efferent arterioles were microdissected attached to the gomeruli. […] Arteriolar diameters were measured with Adobe Photoshop CS. Diameters were measured on a distance equal to about 100 μm upstream of the glomerulus and triplicate were performed for each arteriole. Calibration was made using a stage micrometer. The average diameter for each experimental condition was used for statistical analysis.

AT1 receptor = test: Selectivity towards the AT1 receptor; type: binding
[7] = system: water-deprived or euhydrated mice; test: Plasma AVP after i.c.v. injection (RIA); type: in vivo, mouse
Experimental: Animals were killed 1 min after the injection, and trunk blood (0.5-1 ml) was collected in chilled tubes containing 50 μl of 0.3 M EDTA pH 7.4. […] RIA kit (Peninsula Laboratories International Inc, San Carlo, USA).

[8] = system: anaesthesized normotensive Wistar rats; test: Arterial blood pressure after i.v. injection; type: in vivo, rat
Experimental: The resulting solution was administered to the rats via a catheter inserted into the right femoral vein, and was immediately followed by 0.2 ml Krebs buffer alone to flush the venous catheter. An additional catheter was inserted into the right femoral artery, as previously described (47), for the monitoring of mean arterial blood pressure (MBP) as previously described (48). The arterial catheter was connected to a COBE CDX III pressure transducer (Phymep, Paris, France) linked to the Maclab system (Phymep, Paris, France). HR measurement was triggered by the blood pressure signal. BP was continuously recorded throughout the experiment. […] Mean AUC for each group were then calculated. Unpaired Student's t test was used to determine whether BP observed in response to substances administered […].) has statistically significant difference.

[9] = system: isolated perfused rat heart; test: Isolated perfused rat heart, cardiac contractility
Experimental: Animals were anesthetized with pentobarbital sodium (50 mg/kg intraperitoneally). Heparin (200 IU/kg) was administrated into the femoral vein. Hearts were excised quickly and arrested in ice-cold Krebs-Henseleit solution containing (mM): […] […] Temperature was continuously monitored by a thermoprobe inserted into the right atrium. Hearts beat spontaneously under the sinus rhythm. […] The maximal rate of rise of left ventricular pressure (dP/dtmax) and heart rate were derived from left ventricular pressure. After 20-minutes equilibration period, the hearts were treated by drugs added to the perfusate with an infusion pump (Harvard Apparatus Pump 11) at rate of 100 μL/min for 30 minutes.

[10] = Table 7, read-out: ERK1/2 phosphorylation EC50
[11] = 10^−6 M forskolin, read-out: IC50 inhibition of forskolin-induced cAMP production
[12] = Table 2, read-out: cAMP production IC50

## CCCC[C@H](NC(=O)[C@@H]1CCCN1C(=O)[C@@H](C)NC(=O)[C@H](CCCCN)NC(=O)C(C)(C)NC(=O)[C@H](CO)NC(=O)[C@@H](CC(C)C)NC(=O)[C@H](CCCNC(=N)N)NC(=O)[C@@H]1CCCN1C(=O)[C@H](CCCNC(=N)N)NC(C)=O)C(=O)N1CCC[C@H]1C(=O)N[C@@H](Cc1ccc(Br)cc1)C(=O)O [P26, N-Acetyl-Arg-Pro-Arg-DLeu-Ser-Aib-Lys-DAla-Pro-Nle-Pro-(4-Br)Phe-OH] (HELM PEPTIDE1{[ac].R.P.R.[dL].S.[Aib].K.[dA].P.[Nle].P.[O=C(O)[C@H](Cc1ccc(Br)cc1)N[*:1]]}$$$$V2.0)
Rat apelin receptor-EGFP [1]
  ERK1/2 EC50 times higher than K17F: 18 times
Rat apelin receptor-EGFP [1]; 10 min, read-out: EC50 ERK1/2 phosphorylation
  EC50: 71.3 ± 19.1 nM
Rat apelin receptor-EGFP [1]; [10]
  EC50: 72.1 ± 19.6 nM
In vitro
  half-life at 5 μM: 86 min
[2]
  maximal relaxant effect: 93±3%
  potency (pD2) of relaxation: 6.27±0.42
Rat apelin receptor-EGFP [3]; [11]
  IC50: 4.4 ± 0.9 nM
Rat apelin receptor-EGFP [3]; [12]
  IC50: 2.22 ± 1 nM
Rat apelin receptor-EGFP [4]; 20 min, read-out: EC50 apelin receptor internalization
  EC50: 2.11 ± 1.14 nM
Rat apelin receptor-EGFP [5]; [125I]pE13F binding I (nM), Table 2
  Ki: 2.11 ± 0.4 nM

## CCCC[C@H](NC(=O)[C@@H]1CCCN1C(=O)[C@@H](C)NC(=O)[C@H](CCCCN)NC(=O)C(C)(C)NC(=O)[C@H](CO)NC(=O)[C@@H](CC(C)C)NC(=O)[C@H](CCCNC(=N)N)NC(=O)[C@@H]1CCCN1C(=O)[C@H](CCCNC(=N)N)NC(=O)[C@@H](CCC(N)=O)NC(=O)[C@H](CCCNC(=N)N)NC(=O)[C@@H](CCCNC(=N)N)NC(=O)[C@H](Cc1ccccc1)NC(=O)[C@H](CCCCN)NC(C)=O)C(=O)N1CCC[C@H]1C(=O)N[C@@H](Cc1ccc(Br)cc1)C(=O)O [P92, N-Acetyl-Lys-Phe-DArg-Arg-DGln-Arg-Pro-Arg-DLeu-Ser-Aib-Lys-DAla-Pro-Nle-Pro-(4Br)Phe-OH] (HELM PEPTIDE1{[ac].K.F.[dR].R.[dQ].R.P.R.[dL].S.[Aib].K.[dA].P.[Nle].P.[O=C(O)[C@H](Cc1ccc(Br)cc1)N[*:1]]}$$$$V2.0)
Rat apelin receptor-EGFP [1]; [10]
  EC50: 3.42 ± 2.41 nM
[6]; 500 nM, 1 nM Ang II, from 87.6±1.9% with Ang II, percentage of controls
  arteriolar diameter after addition to Ang II-preconstricted arterioles: 98.1±2.5%
[6]; L-NAME, NO synthase inhibitor
  vasorelaxant effect in the presence of L-NAME: blocked
In vitro
  half-life at 5 μM: 24 min
[2]
  maximal relaxant effect: 100±1%
  potency (pD2) of relaxation: 7.68±0.57
AT1 receptor
  selectivity towards the AT1 receptor with respect to the apelin receptor (factor): 100
Rat apelin receptor-EGFP [3]
  agonist behaviour on inhibition of cAMP production induced by forskolin: full agonist
Rat apelin receptor-EGFP [3]; [11]
  IC50: 0.2 ± 0.06 nM
Rat apelin receptor-EGFP [3]; Table 1, read-out: cAMP production IC50
  IC50: 0.62 ± 0.77 nM
Rat apelin receptor-EGFP [3]; [12]
  IC50: 0.56 ± 0.32 nM
[7]; euhydrated mice, supramaximal dose 1 μg i.c.v.
  effect on plasma AVP levels in euhydrated mice: no effect on plasma AVP levels
[7]; water-deprived mice, 0.1 μg i.c.v.
  maximal decrease in AVP release: −85%
Rat apelin receptor-EGFP [4]
  agonist behaviour towards apelin receptor internalization: full agonist
Rat apelin receptor-EGFP [4]; Table 2, read-out: Internalization EC50
  EC50: 0.38 ± 0.11 nM
[8]; 15 nmol i.v.
  duration of the hypotensive effect, fold higher than K17F: 3 fold
  maximal hypotensive response, fold higher than K17F: 3 fold
[8]; 15 nmol/rat i.v.
  return to baseline after injection: 10.8 min
[8]; 100 nmol i.v., 15 minutes following injection
  AUC of BP response: −34303±4003 mmHg·s
[8]; 100 nmol/rat i.v.
  decrease in MABP: 55.4 mmHg
  plateau value after maximal decrease: −20 mmHg
  time of return to plateau value: around 35 min
[8]; 10 or 15 nmol i.v.
  plateau value after maximal decrease: −25 mmHg
  time of return to plateau value: around 33 min
[8]; Table 5, 15 nmol i.v.
  Maximal decrease in BP (mmHg): −20.8 mmHg
  Time For maximal BP decrease: 1.6 min
  Time to return to a plateau value: 10.8 min
  plateau value reached (in brackets): −12 mmHg
[8]; i.v. 5-100 nmol/rat
  ED50 decrease of MABP: 29.5 nmol
[9]
  chronotropic effect: No chronotropic effect
[9]; K17F 0.01 to 300 nM, P92 200 and 400 nM
  effect on cardiac contractility (developed pressure): increase cardiac contractility with an amplitude similar to K17F
Rat apelin receptor-EGFP [5]; Table 1
  IC50: 0.21 ± 0.13 nM
Rat apelin receptor-EGFP [5]; competition with [125I]pE13F, CHO membranes, read-out: Ki for the apelin receptor (affinity)
  Ki: 0.21 nM and 0.2 nM and 0.09 nM

— patent US20210206817A1, “Metabolically Stable Apelin Analogs in the Treatment of Disease Mediated by the Apelin Receptor” (priority 2014, published 2021)
